Test system: 496974-208-R-J2-PDC complex spheroids, growth % test/control
Test: Anticancer human tumor 496974-208-R-J2-PDC patient-derived pancreatic carcinoma cell line growth inhibition [CLK]
Details: for IC50: curve of first compound; for viability, T/C: stronger effect = lower value
From the text: A high-throughput screen of multi-cell type tumor spheroids was designed to identify active combinations of […] and targeted small molecules. Complex spheroids include a stromal component modeled by human endothelial cells (HUVEC) and fibroblasts modeled by human mesenchymal stem cells (MSCs). The concentration ranges selected for each drug and investigational agent were based upon clinically achievable concentrations if the clinical Cmax of the agent was known.
Compounds. The drugs and investigational agents: cirtuvivint (SM08502; NSC835563), CC-671 (NSC850746), vemurafenib (NSC761431), tapotoclax (NSC804041), sotorasib (NSC818433), adagrasib (NSC831453), MRTX-1133 (NSC836407), BAY2416964 (NSC825713), copanlisib (NSC816437), inavolisib (NSC800729), abemaciclib (NSC768073), osimertinib (NSC779217), entinostat (NSC756642), eltanexor (KPT-8602, NSC794443), venetoclax (NSC766270), ceralasertib (NSC777638), bortezomib (NSC756655), olaparib (NSC753686), talazoparib (NSC767125), alisertib (NSC759677), peposertib (NSC802822), gemcitabine (NSC613327), 5-fluorouracil (NSC19893), SN-38 (NSC673596), oxaliplatin (NSC266046), paclitaxel (NSC125973), and doxorubicin (NSC123127), were obtained from the National Cancer Institute (NCI) Developmental Therapeutics Program Chemical Repository. The FDA-approved anticancer drug set is available from the Developmental Therapeutics Program at https://dtp.cancer.gov/organization/dscb/obtaining/available plates.htm. […] The stock solutions were prepared in dimethyl sulfoxide (DMSO, Sigma-Aldrich, St. Louis, MO, cat. D2650), except for the platinum complexes which were prepared in saline (Quality Biological, Gaithersburg, MD, cat. 114-055-101), at 800-fold the tested concentration and stored at -70 degrees C prior to their use. All drugs and investigational agents were tested over a range starting from a high concentration at or near the clinical Cmax and decreasing in half-log increments. If the clinical Cmax for an agent had not been determined, the highest concentration tested was 10 microM.
Cell Culture. All cells were maintained in an incubator at 37 degrees C and 5% CO2 with 95% humidity. The PDC lines were cultured according to standard operating procedures established by the NCI PDMR. Briefly, all PDCs were thawed and cultured in Matrigel-coated flasks prepared with a working solution of 1X Ham's F-12 nutrient mix, without supplementation (Invitrogen, Waltham, MA, cat. 11765054), 100 U/mL penicillin-streptomycin (Invitrogen, cat. 15140122), and 2.5% Matrigel (Corning Inc., Corning, NY, cat. 354248) for the first three passages. The 947758-054-R-J2-PDC line was cultured in 6B/Colon 1A media, which includes advanced DMEM/F-12 (Thermo Fisher Scientific, cat. 12634028), 10 mM HEPES (Thermo Fisher Scientific, cat. 15630080), 1X GlutaMAX supplement (Thermo Fisher Scientific, cat. 35050061), 0.1 mg/mL primocin (InvivoGen, cat. ant-pm-2), 10% defined fetal bovine serum, heat inactivated (HyClone Laboratories Inc., cat. SH30070.03HI), 1.25 mM N-Acetyl-L-cysteine (Sigma-Aldrich, cat. A9165), 10 mM nicotinamide (Sigma-Aldrich, cat. N0636), 1X B-27 supplement (Thermo Fisher Scientific, cat. 17504044), 1X N-2 supplement (Thermo Fisher Scientific, cat. 17502048), and 10 microM Y-27632 dihydrochloride (Tocris Bioscience, cat. 1254). The 876862-298-R-J1-PDC was cultured in 6E media, which includes all 6B/Colon 1A media components plus 50% L-WRN conditioned media (ATCC, cat. CRL-3276), 50 ng/mL recombinant human EGF recombinant protein (hEGF; Thermo Fisher Scientific, cat. PHG0311), 10 ng/mL recombinant human fibroblast growth factor 10 (hGFG-10; PeproTech, cat. 100-26), 1 ng/mL recombinant human fibroblast growth factor 2 (hFGF-2; PeproTech, cat. 100-18B), and 1 µM prostaglandin E2 (PGE2; Tocris, cat. 2296). The 227483-062-R1-J1-PDC line was cultured in Panc media, containing all 6E components except hFGF-2, with the addition of 500 nM SB-431542 (Selleckchem, cat. S1067) and 10 nM gastrin (Tocris, cat. 3006). […]

[1] = second compound 0.0316 µM, first compound 0.0316 µM
[2] = second compound 0.0316 µM, first compound 0.1 µM
[3] = second compound 0.0316 µM, first compound 0.316 µM
[4] = second compound 0.0316 µM, first compound 1 µM
[5] = second compound 0.0316 µM, first compound 3.16 µM
[6] = second compound 0.0316 µM, first compound 10 µM
[7] = second compound 0.1 µM, first compound 0.0316 µM
[8] = second compound 0.1 µM, first compound 0.1 µM
[9] = second compound 0.1 µM, first compound 0.316 µM
[10] = second compound 0.1 µM, first compound 1 µM
[11] = second compound 0.1 µM, first compound 3.16 µM
[12] = second compound 0.1 µM, first compound 10 µM
[13] = second compound 0.316 µM, first compound 0.0316 µM
[14] = second compound 0.316 µM, first compound 0.1 µM
[15] = second compound 0.316 µM, first compound 0.316 µM
[16] = second compound 0.316 µM, first compound 1 µM
[17] = second compound 0.316 µM, first compound 3.16 µM
[18] = second compound 0.316 µM, first compound 10 µM
[19] = second compound 1 µM, first compound 0.0316 µM
[20] = second compound 1 µM, first compound 0.1 µM
[21] = second compound 1 µM, first compound 0.316 µM
[22] = second compound 1 µM, first compound 1 µM
[23] = second compound 1 µM, first compound 3.16 µM
[24] = second compound 1 µM, first compound 10 µM
[25] = second compound 3.16 µM, first compound 0.0316 µM
[26] = second compound 3.16 µM, first compound 0.1 µM
[27] = second compound 3.16 µM, first compound 0.316 µM
[28] = second compound 3.16 µM, first compound 1 µM
[29] = second compound 3.16 µM, first compound 3.16 µM
[30] = second compound 3.16 µM, first compound 10 µM
[31] = second compound 10 µM, first compound 0.0316 µM
[32] = second compound 10 µM, first compound 0.1 µM
[33] = second compound 10 µM, first compound 0.316 µM
[34] = second compound 10 µM, first compound 1 µM
[35] = second compound 10 µM, first compound 3.16 µM
[36] = second compound 10 µM, first compound 10 µM
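Also: spheroids exposed to the drugs for 7 days before readout.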
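For viability, T/C in this document: 100% = DMSO vehicle control wells.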

C=C(F)C(=O)N1CCN(c2nc(OCC3CCCN3C)nc3c2CCN(c2cccc4cccc(Cl)c24)C3)CC1CC#N (centres undefined) + CN1CCN(c2cc(C(=O)Nc3cc4cc(-c5cnn(C)c5)ccc4cn3)ccn2)CC1
IC50 (second compound 0.0316 µM): 5320 nM | IC50 (second compound 0.1 µM): 4440 nM | IC50 (second compound 0.316 µM): < 31.6 nM | IC50 (second compound 1 µM): < 31.6 nM | IC50 (second compound 3.16 µM): < 31.6 nM | IC50 (second compound 10 µM): < 31.6 nM | viability, T/C [1]: 107% | viability, T/C [2]: 106% | viability, T/C [3]: 89.9% | viability, T/C [4]: 117% | viability, T/C [5]: 88.8% | viability, T/C [6]: 3.02% | viability, T/C [7]: 86.1% | viability, T/C [8]: 88.8% | viability, T/C [9]: 75.8% | viability, T/C [10]: 86.6% | viability, T/C [11]: 70.8% | viability, T/C [12]: 0.72% | viability, T/C [13]: 7.07% | viability, T/C [14]: 8.92% | viability, T/C [15]: 8.59% | viability, T/C [16]: 7.85% | viability, T/C [17]: 6.67% | viability, T/C [18]: 1.1% | viability, T/C [19]: 0.58% | viability, T/C [20]: 0.48% | viability, T/C [21]: 1.51% | viability, T/C [22]: 0.33% | viability, T/C [23]: 1.52% | viability, T/C [24]: 2.06% | viability, T/C [25]: 0.33% | viability, T/C [26]: 0.52% | viability, T/C [27]: 1.57% | viability, T/C [28]: 0.45% | viability, T/C [29]: 0.2% | viability, T/C [30]: 1.09% | viability, T/C [31]: 0.35% | viability, T/C [32]: 0.35% | viability, T/C [33]: 0.31% | viability, T/C [34]: 0.32% | viability, T/C [35]: 0.74% | viability, T/C [36]: 0.22%

C=CC(=O)N1CCN(c2nc(=O)n(-c3c(C)ccnc3C(C)C)c3nc(-c4c(O)cccc4F)c(F)cc23)C(C)C1 (centres undefined) + CN1CCN(c2cc(C(=O)Nc3cc4cc(-c5cnn(C)c5)ccc4cn3)ccn2)CC1
IC50 (second compound 0.0316 µM): > 10000 nM | IC50 (second compound 0.1 µM): > 10000 nM | IC50 (second compound 0.316 µM): < 31.6 nM | IC50 (second compound 1 µM): < 31.6 nM | IC50 (second compound 3.16 µM): < 31.6 nM | IC50 (second compound 10 µM): < 31.6 nM | viability, T/C [1]: 102% | viability, T/C [2]: 114% | viability, T/C [3]: 104% | viability, T/C [4]: 120% | viability, T/C [5]: 128% | viability, T/C [6]: 99.9% | viability, T/C [7]: 90.2% | viability, T/C [8]: 89.7% | viability, T/C [9]: 89.2% | viability, T/C [10]: 104% | viability, T/C [11]: 101% | viability, T/C [12]: 78.4% | viability, T/C [13]: 8.25% | viability, T/C [14]: 9.83% | viability, T/C [15]: 8.72% | viability, T/C [16]: 10.3% | viability, T/C [17]: 7.48% | viability, T/C [18]: 5.87% | viability, T/C [19]: 0.39% | viability, T/C [20]: 0.6% | viability, T/C [21]: 1.15% | viability, T/C [22]: 0.78% | viability, T/C [23]: 1% | viability, T/C [24]: 3.71% | viability, T/C [25]: 0.44% | viability, T/C [26]: 1.82% | viability, T/C [27]: 0.7% | viability, T/C [28]: 0.75% | viability, T/C [29]: 0.83% | viability, T/C [30]: 2.13% | viability, T/C [31]: 0.31% | viability, T/C [32]: 0.35% | viability, T/C [33]: 0.36% | viability, T/C [34]: 0.46% | viability, T/C [35]: 2.05% | viability, T/C [36]: 0.94%
